For 28 compounds, IC50 and inhibition results are on record in patent US7135466B2 (Kirin Beer Kabushiki Kaisha, priority 1999, dated 2006).

The test concerns the target T1, c-kit (Homo sapiens, UniProt P10721).
T1 construct: MO7e (human megakaryocytic leukemia cell line) which had been arrested for 20 hr; endogenous in cells; host or cells: MO7e human megakaryocytic leukemia cell line
Kind of test: Inhibitory activity against c-kit autophosphorylation (MO7e cells, h-SCF). The test is classed as cell-based. The conditions noted are these: for IC50: MO7e cells, h-SCF stimulation, read-out: c-kit IC50; for inhibition at 1 µM: Mo7e, figure in parentheses in −( ), at 1000 nM. The method in brief: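 In this cellular autophosphorylation assay, compound-treated MO7e cells (1 hr) were challenged with human stem cell factor at 50 ng/ml for 5 min; detection relied on PY-20 capture and anti-c-kit/HRP immunodetection at 450 nm.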

T1 sequence (P10721 26-976): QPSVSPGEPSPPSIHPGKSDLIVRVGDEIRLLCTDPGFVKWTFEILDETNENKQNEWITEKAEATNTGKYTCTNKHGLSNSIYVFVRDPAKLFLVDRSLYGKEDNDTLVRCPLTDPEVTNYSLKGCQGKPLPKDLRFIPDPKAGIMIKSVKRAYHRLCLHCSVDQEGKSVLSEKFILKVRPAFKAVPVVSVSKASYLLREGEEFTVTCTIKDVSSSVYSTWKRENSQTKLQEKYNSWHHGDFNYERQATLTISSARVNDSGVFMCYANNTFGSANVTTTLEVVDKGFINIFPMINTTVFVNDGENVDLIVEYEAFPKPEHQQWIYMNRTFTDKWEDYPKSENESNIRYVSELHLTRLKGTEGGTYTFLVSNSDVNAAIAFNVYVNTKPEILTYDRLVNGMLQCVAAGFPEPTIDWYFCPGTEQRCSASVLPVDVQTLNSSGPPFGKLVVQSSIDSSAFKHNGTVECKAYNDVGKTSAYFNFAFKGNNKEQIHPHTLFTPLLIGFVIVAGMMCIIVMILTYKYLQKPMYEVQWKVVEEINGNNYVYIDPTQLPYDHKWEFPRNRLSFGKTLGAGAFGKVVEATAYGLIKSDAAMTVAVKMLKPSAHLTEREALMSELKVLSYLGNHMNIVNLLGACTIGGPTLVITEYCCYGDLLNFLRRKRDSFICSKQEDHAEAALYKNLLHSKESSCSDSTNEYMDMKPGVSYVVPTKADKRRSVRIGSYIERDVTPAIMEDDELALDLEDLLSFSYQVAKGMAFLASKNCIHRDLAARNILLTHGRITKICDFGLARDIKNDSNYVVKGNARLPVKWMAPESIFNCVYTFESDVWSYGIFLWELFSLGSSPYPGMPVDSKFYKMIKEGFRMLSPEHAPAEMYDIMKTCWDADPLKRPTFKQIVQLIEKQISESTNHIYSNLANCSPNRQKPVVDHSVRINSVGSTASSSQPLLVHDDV

With `COc1cc2ncnc(Oc3ccc(NCCOc4ccccc4O)cc3)c2cc1OC` [Example 874, 2-(2-{4-[(6,7-Dimethoxy-4-quinazolinyl)oxy]anilino}ethoxy)phenol], the IC50 (in general, the concentration that inhibits the measured activity by half) came to 151 nM.
With `COc1cc2nccc(Oc3ccc(NCCOc4ccccc4)cc3C)c2cc1OC` [Example 875, N-{4-[(6,7-Dimethoxy-4-quinolyl)oxy]-3-methylphenyl}-N-(2-phenoxyethyl)amine], the IC50 is 115 nM.
On the same count and under the same terms, next, `COc1cc2nccc(Oc3ccc(NCCOc4ccccc4C)cc3C)c2cc1OC` [Example 876, N-{4-[(6,7-Dimethoxy-4-quinolyl)oxy]-3-methylphenyl}-N-[2-(2-methylphenoxy)ethyl]amine]: 242 nM; `COc1cc2nccc(Oc3ccc(NCCOc4ccccc4Cl)cc3C)c2cc1OC` [Example 877, N-[2-(2-Chlorophenoxy)ethyl]-N-{4-[(6,7-dimethoxy-4-quinolyl)oxy]-3-methylphenyl}amine]: 219 nM; `COc1cc2nccc(Oc3ccc(NC(=S)NC(=O)c4ccccc4)cc3)c2cc1OC` [Example 897, N-Benzoyl-N′-{4-[(6,7-dimethoxy-4-quinolyl)oxy]phenyl}thiourea]: 938 nM.
On the same count and under the same terms, next, `COc1cc2nccc(Oc3ccc(NC(=S)NC(=O)c4ccccc4Cl)cc3)c2cc1OC` [Example 898, N-(2-Chlorobenzoyl)-N′-{4-[(6,7-dimethoxy-4-quinolyl)oxy]phenyl}thiourea]: 637 nM.
Same read-out and setting: next, `COc1cc2nccc(Oc3ccc(NC(=S)NC(=O)c4ccccc4Br)cc3)c2cc1OC` [Example 900, N-(2-Bromobenzoyl)-N′-{4-[(6,7-dimethoxy-4-quinolyl)oxy]phenyl}thiourea]: 372 nM.
As for `COc1cc2nccc(Oc3ccc(NC(=S)NC(=O)c4ccccc4OC)cc3)c2cc1OC` [Example 901, N-{4-[(6,7-Dimethoxy-4-quinolyl)oxy]phenyl}-N′-(2-methoxybenzoyl)thiourea], the inhibition (as a rule, the relative decrease from the control value, in per cent) at 1 µM was determined as 27%.
For `COc1cc2nccc(Oc3ccc(NC(=S)NC(=O)c4ccccc4C(F)(F)F)cc3)c2cc1OC` [Example 902, N-{4-[(6,7-Dimethoxy-4-quinolyl)oxy]phenyl}-N′-[2-(trifluoromethyl)benzoyl]thiourea], the IC50 is 299 nM.
For `COc1cc2nccc(Oc3ccc(NC(=S)NC(=O)c4ccccc4)c(F)c3)c2cc1OC` [Example 903, N-Benzoyl-N′-{4-[(6,7-dimethoxy-4-quinolyl)oxy]-2-fluorophenyl}thiourea], the inhibition at 1 µM was 34%.
The same measure, in the same setting: next, `COc1cc2nccc(Oc3ccc(NC(=S)NC(=O)c4ccccc4C)c(F)c3)c2cc1OC` [Example 904, N-{4-[(6,7-Dimethoxy-4-quinolyl)oxy]-2-fluorophenyl}-N′-(2-methylbenzoyl)thiourea]: 46%; `COc1cc2nccc(Oc3ccc(NC(=S)NC(=O)c4ccccc4F)c(F)c3)c2cc1OC` [Example 906, N-{4-[(6,7-Dimethoxy-4-quinolyl)oxy]-2-fluorophenyl}-N′-(2-fluorobenzoyl)thiourea]: 29%.
Regarding `COc1cc2nccc(Oc3ccc(NC(=S)NC(=O)c4ccccc4Br)c(F)c3)c2cc1OC` [Example 907, N-(2-Bromobenzoyl)-N′-{4-[(6,7-dimethoxy-4-quinolyl)oxy]-2-fluorophenyl}thiourea], the IC50 came to 572 nM.
Take `COc1cc2nccc(Oc3ccc(NC(=S)NC(=O)c4ccccc4OC)c(F)c3)c2cc1OC` [Example 909, N-{4-[(6,7-Dimethoxy-4-quinolyl)oxy]-2-fluorophenyl}-N′-(2-methoxybenzoyl)thiourea]: the inhibition at 1 µM worked out at 32%.
The same measure, in the same setting: for `COc1cc2nccc(Oc3ccc(NC(=S)NC(=O)c4ccccc4C(F)(F)F)c(F)c3)c2cc1OC` [Example 910, N-{4-[(6,7-Dimethoxy-4-quinolyl)oxy]-2-fluorophenyl}-N′-[2-(trifluoromethyl)benzoyl]thiourea] the value was 38%.
Consider `COc1cc2nccc(Oc3ccc(NC(=S)NC(=O)c4ccccc4)cc3F)c2cc1OC` [Example 911, N-Benzoyl-N′-{4-[(6,7-dimethoxy-4-quinolyl)oxy]-3-fluorophenyl}thiourea], for which the IC50 was determined as 498 nM.
On the same count and under the same terms, next, `COc1cc2nccc(Oc3ccc(NC(=S)NC(=O)c4ccccc4C)cc3F)c2cc1OC` [Example 912, N-{4-[(6,7-Dimethoxy-4-quinolyl)oxy]-3-fluorophenyl}-N′-(2-methylbenzoyl)thiourea]: 497 nM.
Consider `COc1cc2nccc(Oc3ccc(NC(=S)NC(=O)c4ccccc4Cl)cc3F)c2cc1OC` [Example 913, N-(2-Chlorobenzoyl)-N′-{4-[(6,7-dimethoxy-4-quinolyl)oxy]-3-fluorophenyl}thiourea], for which the IC50 is 563 nM.
The same measure, in the same setting: next, `COc1cc2nccc(Oc3ccc(NC(=S)NC(=O)c4ccccc4Br)cc3F)c2cc1OC` [Example 914, N-(2-Bromobenzoyl)-N′-{4-[(6,7-dimethoxy-4-quinolyl)oxy]-3-fluorophenyl}thiourea]: 299 nM.
As to `COc1cc2nccc(Oc3ccc(NC(=S)NC(=O)c4ccccc4OC)cc3F)c2cc1OC` [Example 916, N-{4-[(6,7-Dimethoxy-4-quinolyl)oxy]-3-fluorophenyl}-N′-(2-methoxybenzoyl)thiourea], the inhibition at 1 µM was 16%.
With `COc1cc2nccc(Oc3ccc(NC(=S)NC(=O)c4ccccc4)cc3Cl)c2cc1OC` [Example 918, N-Benzoyl-N′-{3-chloro-4-[(6,7-dimethoxy-4-quinolyl)oxy]phenyl}thiourea], the IC50 was determined as 552 nM.
In the case of `COc1cc2nccc(Oc3ccc(NC(=S)NC(=O)c4ccccc4C)cc3Cl)c2cc1OC` [Example 919, N-{3-Chloro-4-[(6,7-dimethoxy-4-quinolyl)oxy]phenyl}-N′-(2-methylbenzoyl)thiourea], the inhibition at 1 µM is 11%.
As to `COc1cc2ncnc(Oc3ccc(NC(=S)NC(=O)c4ccccc4Cl)cc3Cl)c2cc1OC` [Example 920, N-(2-Chlorobenzoyl)-N′-{3-chloro-4-[(6,7-dimethoxy-4-quinazolinyl)oxy]phenyl}thiourea], the IC50 is 448 nM.
On to `COc1cc2nccc(Oc3ccc(NC(=S)NC(=O)c4ccccc4F)cc3Cl)c2cc1OC` [Example 921, N-{3-Chloro-4-[(6,7-dimethoxy-4-quinolyl)oxy]phenyl}-N′-(2-fluorobenzoyl)thiourea], for which the inhibition at 1 µM turned out to be 42%.
Turning to `COc1cc2nccc(Oc3ccc(NC(=S)NC(=O)c4ccccc4Br)cc3Cl)c2cc1OC` [Example 922, N-(2-Bromobenzoyl)-N′-{3-chloro-4-[(6,7-dimethoxy-4-quinolyl)oxy]phenyl}thiourea], the IC50 worked out at 365 nM.
Turning to `COc1cc2nccc(Oc3ccc(NC(=S)NC(=O)c4ccccc4OC)cc3Cl)c2cc1OC` [Example 923, N-{3-Chloro-4-[(6,7-dimethoxy-4-quinolyl)oxy]phenyl}-N′-(2-methoxybenzoyl)thiourea], the inhibition at 1 µM amounted to 25%.
As for `COc1cc2nccc(Oc3ccc(NC(=S)NC(=O)c4ccccc4C(F)(F)F)cc3Cl)c2cc1OC` [Example 924, N-{3-Chloro-4-[(6,7-dimethoxy-4-quinolyl)oxy]phenyl}-N′-[2-(trifluoromethyl)benzoyl]thiourea], the IC50 came out at 440 nM.
As to `COc1cc2ncnc(Oc3ccc(NC(=S)NC(=O)c4ccccc4)cc3)c2cc1OC` [Example 926, N-Benzoyl-N′-{4-[(6,7-dimethoxy-4-quinazolinyl)oxy]phenyl}thiourea], the inhibition at 1 µM was found to be 31%.
